# Values of other authors as cited in patent EP1757570A1, “Process for obtaining a purified hydrofluoroalkane with 2 carbon atoms” (Solvay SA, priority 2005, dated 2007).
# Like-named read-outs stand apart in the source and are kept apart here.
SMILES,"Half life (73 °C, in solution in benzene) [h]","Half life (92 °C, in solution in benzene) [h]","Half life (131 °C, in solution in benzene) [h]",Half life (65 °C) [h],Half life (82 °C) [h],Half life (120 °C) [h]
"O=C(OOC(=O)c1ccccc1)c1ccccc1 [DBP, dibenzoylperoxide]",10,1,0.017,,,
"CC(C)(C#N)N=NC(C)(C)C#N [AIBN, 2,2'-azobis(isobutyronitrile)]",,,,10,1,0.017
